Consider three compounds from patent EP2952182A1, “Compounds and methods for increasing the immune response to papillomavirus” (Universitätsklinikum Heidelberg, priority 2014, dated 2015).

Experiment [1] concerns HPV16 L1 protein. The experiment in a line: Detection of HPV L1 capsid protein by immunoblotting (Western blot) in treated Caski cells. The conditions noted are these: Caski cells treated for 28 days, band at approximately 55 kDa, anti HPV16 L1 polyclonal rabbit antibodies, Fig. 4. It counts as cell-based. Here is the method: 5-aza-2'-deoxycytidine was added daily to cultures of Caski cells at concentrations […]. Caski cells were cultured with medium changed every 24 hours. Treatments were stopped at day 28 and the cells were grown in the absence of drugs for […]. The same culture conditions were used for untreated and DMSO treated Caski cells. Samples were collected on days 7, 14, 21, 28 and 38 for genomic DNA and total RNA purifications.
Protein extracts were also obtained from Caski cells on days 7, 14, 21, 28 and 38 of treatment. Cells were lysed in RIPA buffer containing Protease Inhibitor Cocktail (Sigma). Whole-cell lysates were prepared in denaturing SDS sample buffer and subjected to 12% SDS-PAGE. Proteins were transferred to PVDF Membrane (Invitrogen) and the blots were blocked with 5% non-fat dry milk in TBS-T buffer. The anti HPV16 L1 polyclonal rabbit antibodies (kindly provided by Dr Martin Muller, DKFZ, Germany) were used to detect the HPV16 L1 protein. Horseradish peroxidase conjugated secondary antibodies (1:2000 dilution, Anti-rabbit IgG, HRP-linked Antibody #7074 (Cell Signaling) were detected using Western Blotting Chemiluminescence Luminol Reagent (Santa Cruz).
On the technique in general: A western blot detects proteins with antibodies after separation by electrophoresis.

The test system of experiment [2] is Caski cells. Kind of experiment: CD107a mobilization (degranulation) assay of L1-stimulated T cells against pretreated Caski cells. It counts as cell-based. How it is done:
PBMCs were obtained from blood of a healthy, HLA-A*0201 positive donor by density gradient centrifugation with lymphocyte separation medium (PAA, Pasching, Austria). PBMCs were resuspended in RPMI medium (Gibco, Paisley, UK), containing 5% human serum and seeded in cell culture flasks. After 4 hours of adherence at 37°C the non-adherent cells were removed. To stimulate the differentiation of monocytes into dendritic cells, the adherent fraction of cells was cultured in CellGro Medium (CellGenix, Freiburg, Germany) containing GM-CSF (1000 U/ml, Promokine, Heidelberg, Germany) and IL-4 (666,7 U/ml, Promokine, Heidelberg, Germany) for 5-7 days. Then, IL-4 and GM-CSF were added again together with a terminal differentiation-inducing cocktail containing the proinffammatory cytokines IL-6 (1000 U/ml Promokine, Heidelberg, Germany), IL-1β (10 ng/ml Promokine, Heidelberg, Germany), PGE-2 ([…], Promokine, Heidelberg, Germany) and TNF-α (10 ng/ml, Promokine, Heidelberg, Germany) were added and cells were incubated overnight. […]
To monitor the degranulation of L1-stimulated T cells (effectors) induced by Caski cells (targets), Caski cells pretreated with different concentrations of 5-Aza-2'-deoxycytidine (0.1 µM and 1.0 µM) for 12 days or untreated cells were used. […] Degranulation rate was measured as the fraction of CD107a/CD8 double staining cells relative to total CD8 positive cells (Fig. 5).

The test system of experiment [3] is cancer cell lines. The conditions noted are these: low-dose treatment; cited from earlier work.

In the case of `Nc1ncn([C@H]2C[C@H](O)[C@@H](CO)O2)c(=O)n1` [5-aza-2'-deoxycytidine], the “L1 protein expression level” value in experiment [1] is “Significant increase”. Further, the “fraction of T cells undergoing degranulation (CD107a/CD8 double staining cells relative to total CD8 positive cells)” value in experiment [2] (Caski cells pretreated with 0.1 µM and 1.0 µM for 12 days vs untreated, effectors and targets 1:1, 5 hours, Fig. 5) is “increased”.
`Nc1ncn([C@@H]2O[C@H](CO)[C@@H](O)[C@H]2O)c(=O)n1` [5-azacytidine]: the “expression of immune-related genes” value in experiment [3] is given as “leads to expression of immune-related genes”.
Regarding `Nc1ncn([C@@H]2O[C@H](CO)[C@@H](O)[C@H]2O)c(=O)n1` [azacitidine], the “cytolytic activity of T-cells stimulated in vitro with L1-derived peptides towards Caski cells” value in experiment [2] (treated Caski cells expressing the L1-antigen, degranulation rate, Fig. 5 legend) is given as “Enhanced”.
